These results are taken from patent US10577322B2, “5-methoxytryptophan and its derivatives and uses thereof” (National Health Research Institutes, priority 2015, dated 2020).

Experiment [1] deals with COX-2. The experiment is described as follows: PMA-induced COX-2 expression in A549 cells (immunoblot). In kind it is cell-based. As to conditions: for PMA-induced COX-2 protein expression: 30 min pretreatment, PMA 8 h. Here is the method: (§1) Cellular protein were resolved by 5% to 20% SDS-PAGE and transferred to nitrocellulose membranes and blotted with specific antibodies as previously described (Lee, G. L., et al.).
After pretreating A549 cells with different concentrations of 5-MTP, 5-MTPE and NACT-5-MTP for 30 min, cells were stimulated with PMA for 8 h. Cell lysates were immunoblotted with antibodies for COX-2 or β-actin.
On the technique in general: A western blot detects proteins with antibodies after separation by electrophoresis.

Experiment [2] concerns COX-2. The experiment is described as follows: LPS-induced COX-2 protein expression in RAW264.7 cells (immunoblot). It counts as cell-based, mouse. As to conditions: LPS 8 h. As to the method: (§2) Mouse RAW264.7 macrophages were from the American Type Culture Collection and cultured in DMEM containing 10% FBS. […] The duration of LPS (100 ng/ml) treatment varied depending on the experiment.
as §1
(§3) After pretreating mouse macrophage RAW264.7 cells with different concentrations of 5-MTP for 30 min, cells were stimulated with LPS for 8 h. Cell lysates were immunoblotted with antibodies for COX-2 or β-actin. In addition, RAW264.7 cells were transfected with COX-2 promoter-luciferase plasmid. After 24 h transfection, the cells were incubated with LPS for 8 h. Luciferase activity was measured.

In the next experiment the test system is IL-6. The experiment is described as follows: LPS-induced IL-6 level in RAW264.7 culture supernatants (ELISA). Particulars: RAW264.7 cells; for LPS-induced IL-6 protein expression: LPS 8 h. It counts as cell-based, mouse. As to the method: as §2
Moreover, RAW264.7 cells and IL-6 promoter-luciferase plasmid transfected RAW264.7 cells were pretreated with different concentrations of 5-MTP for 30 min, followed by LPS stimulation for 8 h. IL-6 promoter activity was measured by luciferase assay. IL-6 level in culture supernatants was measured by ELISA.
Furthermore, RAW264.7 cells were treated with different concentrations of 5-MTP or 5-MTPE for 24 h. Cell viability was determined by MTT assay. In another experiment, after pretreating RAW264.7 cells with different concentrations of 5-MTP or 5-MTPE for 30 min, cells were stimulated with LPS for 24 h. IL-6 level in culture supernatants was measured by ELISA.
(§4) Herein, after pretreating RAW264.7 cells with different concentrations of 5-MTP, 5-MTPE, COX-2 inhibitors (NSC398 or SC560) and NF-κB inhibitor JSH-23 for 30 min, cells were stimulated with LPS. In addition, RAW264.7 cells were also transfected with COX-2 promoter-luciferase plasmid. After 24 h transfection, the cells were incubated with LPS for 8 h. Luciferase activity as measured.

For a further experiment, the system named is COX-2 promoter. The experiment is described as follows: COX-2 promoter-luciferase assay in RAW264.7 cells. It counts as cell-based, mouse. As to conditions: LPS 8 h. As to the method: RAW264.7 macrophages were cotransfected with COX-2 promoter-luciferase, IL-6 promoter-luciferase constructs as previously described (Lee, G. L., et al.) or p5xNF-κB-luciferase (Stratagene) and pcDNA3.1-β-galactosidase plasmids using FuGENE 6 (Roche). After overnight transfection, the cells were incubated with or without LPS in the presence or absence of 5-MTP for 8 h. After treatment, cells were lysed, and luciferase activity was measured using an assay kit (Promega). β-galactosidase activity was used to normalize the data.
as §3, with “measured. The experiments were repeated 3 times with similar results. The results shown in FIGS. 3A-3B confirmed that 5-MTP blocked LPS-induced COX-2 protein expression and promoter activity in a concentration-dependent manner in RAW264.7 cells.” for “measured.”
as §4

In a further experiment the test system is A549 lung cancer cells. Kind of experiment: Transwell cell migration assay, A549. It counts as cell-based. As to conditions: 30 min pretreatment, PMA 4 h or 24 h. Here is the method: (§5) Briefly, cells (10^4/well) were seeded on the upper chamber (6.5-mm insert, 8-μm polycarbonate membrane; Corning Inc.), which was placed in each well of a 24-well plate. The lower chamber was filled with 700 μL DMEM supplemented with 10% FBS. For assessment of in vitro invasion, cells were seeded onto the upper chamber insert coated with Matrigel (BD Biosciences) under the same conditions as the transwell migration assays. At the indicated time, nonmigrated cells that remained at the top surface of the insert were removed with a cotton swab. Cells that migrated to the lower membrane surface and cells that invaded through the matrigel gel to the underside of the membrane were fixed, stained with 0.1% crystal violet for 20 min, and counted under light microscopy. All of the assays were done in triplicate with excellent reproducibility.
(§6) Lung cancer A549 and breast cancers BT474 and T47D cells were pretreated with different concentrations of 5-MTP or 5-MTPE for 30 min, then stimulated with PMA for 4 h or 24 h. Cell migration was measured by the transwell migration assay.

Experiment [3] relates to BT474 breast cancer cells. Kind of experiment: Transwell cell migration assay, BT474. It counts as cell-based. Particulars: 30 min pretreatment, PMA 4 h or 24 h. Here is the method:
as §5, §6

The next experiment concerns T47D breast cancer cells. The experiment is described as follows: Transwell cell migration assay, T47D. It counts as cell-based. As to conditions: 30 min pretreatment, PMA 4 h or 24 h. Here is the method: as §5, §6

Take `COc1ccc2[nH]cc(CCN)c2c1` [5-methoxytryptamine, reference compound]: the “PMA-induced COX-2 protein expression” value with COX-2 [1] is on record as “neither serotonin nor 5-methoxytryptamine or tryptophan exerted an effect”. Besides, the “LPS-induced COX-2 protein expression” value in the experiment on COX-2 [2] is reported as “neither serotonin nor 5-methoxytryptamine or tryptophan exerted an effect”. In the experiment on IL-6, the “LPS-induced IL-6 protein expression” value is on record as “neither serotonin nor 5-methoxytryptamine or tryptophan exerted an effect”.
Consider `Cc1ccc(NCCCc2ccccc2)c(N)c1` [JSH-23, reference compound], for which the “LPS-induced COX-2 promoter activity (luciferase)” value in the experiment on COX-2 promoter is “dose-dependently blocked”. For the same compound, in the experiment on IL-6 (30 min pretreatment, LPS 24 h), the “LPS-induced IL-6 level in culture supernatants” value is “dose-dependently blocked”.
As for `NCCc1c[nH]c2ccc(O)cc12` [Serotonin, reference compound], the “PMA-induced COX-2 protein expression” value in the experiment with COX-2 [1] was “neither serotonin nor 5-methoxytryptamine or tryptophan exerted an effect”. Further, the “LPS-induced COX-2 protein expression” value with COX-2 [2] is listed as “neither serotonin nor 5-methoxytryptamine or tryptophan exerted an effect”. Moreover, the “LPS-induced IL-6 protein expression” value in the experiment on IL-6 is “neither serotonin nor 5-methoxytryptamine or tryptophan exerted an effect”.
With `N[C@@H](Cc1c[nH]c2ccccc12)C(=O)O` [Tryptophan], the “PMA-induced COX-2 protein expression” value with COX-2 [1] is reported as “neither serotonin nor 5-methoxytryptamine or tryptophan exerted an effect”. The “LPS-induced COX-2 protein expression” value with COX-2 [2] is given as “neither serotonin nor 5-methoxytryptamine or tryptophan exerted an effect”. In addition, the “LPS-induced IL-6 protein expression” value with IL-6 is “neither serotonin nor 5-methoxytryptamine or tryptophan exerted an effect”.
Regarding N-acetyl-5-MTP [NACT-5MTP], in the experiment with COX-2 [1], the “PMA-induced COX-2 protein expression” value is given as “dose-dependently blocked”. In the experiment on COX-2 [1] (PMA), the “COX-2 suppressive activity compared with 5-MTP” value was “potent than that of 5-MTP”. The “PMA-induced A549 cell migration” value in the experiment with A549 lung cancer cells is given as “abrogated”. Also, the “PMA-induced BT474 cell migration” value in experiment [3] was “abrogated”. In the experiment on T47D breast cancer cells, the “PMA-induced T47D cell migration” value is given as “abrogated”.
